Source: patent US20260151516A1, “NEW PET TRACER FOR IMAGING OF THE FUNCTIONAL HEPATIC RESERVE” (Medizinische Universität Innsbruck, priority 2022, published 2026)
“And” between values parts separate entries of the source, which are not always exact repeats. Identical values can stand only once.

Assays:
[1] = Ligand stability in PBS (radio-HPLC); format: physicochemical; conditions: 37° C., over the time course of 2 h
Description: (§1) Ligand stability in human blood serum (n=2) and PBS (n=1) was determined for different time points (2 min, 30 min, 60 min, 120 min). Therefore, approx. 5 MBq of radioligand was added to 1 mL of fresh human serum or PBS and incubated at 37° C. At each given time point 100 μL of the mixture were transferred to a 1.5 mL Eppendorf tube containing 100 μL of acetonitrile. The vial was vortexed and centrifuged for 2 min at 14,000 rpm before 100 μL of the supernatant were diluted with 200 μL of water and injected into analytical radio-HPLC. The PBS solution was directly injected into the radio-HPLC. Ligand stability was determined by integrating the areas of the signals in the radio chromatogram in relation to the signal of the intact ligand.

Recombinant human ASGR1 = biological target: T1, Recombinant human ASGR1 (Homo sapiens, UniProt P07306); assay: In vitro binding study, isolated receptor-based assay against ^125I-Asialoorosomucoid; conditions: recombinant human ASGR1, ^125I-Asialoorosomucoid 50 nM, n = 3; method used [^natGa]Ga-NODAGA-TriGalactan
T1 construct: His tag (inferred from immobilisation on Ni-coated plates)
T1 sequence (P07306 1-291): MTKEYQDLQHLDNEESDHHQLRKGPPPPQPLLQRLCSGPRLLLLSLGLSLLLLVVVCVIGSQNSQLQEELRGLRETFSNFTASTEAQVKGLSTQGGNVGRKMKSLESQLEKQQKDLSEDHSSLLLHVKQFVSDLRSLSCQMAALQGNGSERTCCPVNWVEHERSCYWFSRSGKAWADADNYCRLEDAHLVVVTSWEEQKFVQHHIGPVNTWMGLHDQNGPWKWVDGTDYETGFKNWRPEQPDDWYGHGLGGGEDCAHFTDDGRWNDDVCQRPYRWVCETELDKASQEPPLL
Description: Recombinant human ASGR1 was seeded out into Ni-coated 96 well plates (Pierce, Thermo Fisher) in PBS at a concentration of 2 μg/mL for at least 2 h at room temperature under mild agitation (200 1/min). Unbound receptor was removed by washing the wells twice with binding buffer (25 mM Tris×HCl, 150 mM NaCl, 0.05% TWEEN 20, pH=7.4). Next 140 μL of binding buffer as well as 20 μL of a 19 mM CaCl2-solution were added to the wells followed by addition of either 20 μL of PBS (control) or 20 μL of [^natGa]Ga-NODAGA-TriGalactan in PBS. Final ligand concentrations were ranging from 10^−5-10^−11 M. Lastly 20 μL of ^125I-Asialoorosomucoid (50 nM, 2.4 kBq per well) were added and the plate was incubated for 1 hour at room temperature under mild agitation (200 rpm). Supernatants were removed and the wells washed twice with 200 μL of PBS before receptor bound activity was released by addition of 200 μL of hot (60° C.) 1 M NaOH. Wells were incubated with NaOH for 10 min. Lysates were removed and the wells washed again twice with 200 μL of hot NaOH. The activity content in the lysates was quantified in a γ-counter and the values plotted in excel. Fitting of the sigmoidal binding curve and the calculation of the IC50 value was done with Excel's solver plugin.

human serum = assay: Protein binding in fresh human serum (Sephadex MicroSpin G-50 columns); format: in vitro ADME; conditions: 37° C.
Description: Protein binding was determined for different time points (2 min, 30 min, 60 min, 120 min) in triplicates using Sephadex MicroSpin G-50 columns (GE-Healthcare, Chicago, Illinois, USA). The columns were spun initially at 20,000 rcf for 1 min to remove the storage buffer. Then approx. 5 MBq of radioligand was added to 1 mL of fresh human serum and incubated at 37° C. At each given timepoint 25 μL of the mixture was loaded on to the column, which was then spun at 20,000 rcf for 1 min. The activity content on the column (free radioligand) and in the filtrate (protein bound fraction) was quantified in a γ-counter.

[2] = Biodistribution studies incl. blocking experiments; format: in vivo; conditions: healthy BALB/c mice
Description: For biodistribution studies 6 week old female BALB/c mice (n=3) were injected with 0.1 nmol (100 μL, approx. 1 MBq) of labelled compound via the lateral tail vein and sacrificed after 10, 30, or 60 min by cervical dislocation. The mice were dissected, blood and organs (spleen, pancreas, stomach, intestine, liver, kidney, heart, lung, muscle, and bone) were weighed, and their activity measured in a γ-counter. For blocking experiments, mice were co-injected with 100 μL of a 277 mM Galactose/PBS solution. In case of [^68Ga]Ga-TRAP-GalNAc a 277 mM N-Acetylgalactose solution was used.

[3] = Partition coefficient (log D), n-Octanol/PBS; format: physicochemical; conditions: read-out: logD
Description: The vials were vortexed for 5 min at 1,500 rpm and then centrifuged for 5 min at 20,000 rcf (Eppendorf Centrifuge 5424).

[4] = Ligand stability in human blood serum (radio-HPLC); format: in vitro ADME; conditions: for Serum stability (% of intact ligand): 37° C.
Description: as §1

[5] = 30 min p.i., blocking with 277 mM galactose

O=C(O)CN1CCN(CC(=O)O)CCN([C@H](CCC(=O)NCCCC(=O)NC(COCc2cn(CCOCCOCCO[C@@H]3O[C@H](CO)[C@H](O)[C@H](O)[C@H]3O)nn2)(COCc2cn(CCOCCOCCO[C@@H]3O[C@H](CO)[C@H](O)[C@H](O)[C@H]3O)nn2)COCc2cn(CCOCCOCCO[C@@H]3O[C@H](CO)[C@H](O)[C@H](O)[C@H]3O)nn2)C(=O)O)CC1 [[^68Ga]Ga-NODAGA-TriGalactan, metal not drawn]
Stability in PBS (% intact tracer) [1]: > 99% | IC50 (Recombinant human ASGR1): 1.7 nM | Protein binding (%) (human serum; 2 min): 7.6±3.9% | Protein binding (%) (human serum; 30 min): 5.5% | Protein binding (%) (human serum; 60 min): 9.2% | Protein binding (%) (human serum; 120 min): 13.6±3.2% | Biodistribution Blood ([2]; 10 min p.i.): 3.3 ± 0.2 % ID/g | Biodistribution Femur ([2]; 10 min p.i.): 0.87 ± 0.52 % ID/g | Biodistribution Intestine ([2]; 10 min p.i.): 1.13 ± 0.07 % ID/g | Biodistribution Kidneys ([2]; 10 min p.i.): 8.2±0.5 % ID/g and 8.15 ± 0.54 % ID/g | Biodistribution Liver ([2]; 10 min p.i.): 33.4±0.9 % ID/g and 33.4 ± 0.88 % ID/g | Biodistribution Lung ([2]; 10 min p.i.): 2.14 ± 0.13 % ID/g | Biodistribution Muscle ([2]; 10 min p.i.): 0.77 ± 0.02 % ID/g | Biodistribution Pancreas ([2]; 10 min p.i.): 0.87 ± 0.12 % ID/g | Biodistribution Spleen ([2]; 10 min p.i.): 0.78 ± 0.05 % ID/g | Biodistribution Blood ([2]; 30 min p.i.): 0.89 ± 0.09 % ID/g | Biodistribution Femur ([2]; 30 min p.i.): 0.22 ± 0.02 % ID/g | Biodistribution Heart ([2]; 30 min p.i.): 0.40 ± 0.03 % ID/g | Biodistribution Intestine ([2]; 30 min p.i.): 1.95 ± 0.17 % ID/g | Biodistribution Kidneys ([2]; 30 min p.i.): 2.83 ± 0.18 % ID/g | Biodistribution Liver ([2]; 30 min p.i.): 32.2±3.7 % ID/g | Biodistribution Lung ([2]; 30 min p.i.): 0.74 ± 0.03 % ID/g | Biodistribution Muscle ([2]; 30 min p.i.): 0.23 ± 0.03 % ID/g | Biodistribution Pancreas ([2]; 30 min p.i.): 0.31 ± 0.05 % ID/g | Biodistribution Spleen ([2]; 30 min p.i.): 0.27 ± 0.02 % ID/g | Biodistribution Stomach ([2]; 30 min p.i.): 1.05 ± 0.08 % ID/g | Biodistribution Blood [2, 5]: 1.19 ± 0.33 % ID/g | Biodistribution Femur [2, 5]: 0.37 ± 0.16 % ID/g | Biodistribution Heart [2, 5]: 0.44 ± 0.03 % ID/g | Biodistribution Intestine [2, 5]: 0.77 ± 0.19 % ID/g | Biodistribution Kidneys [2, 5]: 4.19 ± 0.29 % ID/g | Biodistribution Liver [2, 5]: 13.9±1.0 % ID/g and 14.6 ± 0.15 % ID/g | Biodistribution Lung [2, 5]: 0.97 ± 0.04 % ID/g | Biodistribution Muscle [2, 5]: 0.43 ± 0.20 % ID/g | Biodistribution Pancreas [2, 5]: 0.45 ± 0.01 % ID/g | Biodistribution Spleen [2, 5]: 0.32 ± 0.03 % ID/g | Biodistribution Stomach [2, 5]: 0.68 ± 0.11 % ID/g | Biodistribution Blood ([2]; 60 min p.i.): 0.3±0.04 % ID/g and 0.34 ± 0.04 % ID/g | Biodistribution Femur ([2]; 60 min p.i.): 0.26 ± 0.19 % ID/g | Biodistribution Heart ([2]; 60 min p.i.): 0.17 ± 0.00 % ID/g | Biodistribution Intestine ([2]; 60 min p.i.): 3.0±0.4 % ID/g and 2.99 ± 0.43 % ID/g | Biodistribution Kidneys ([2]; 60 min p.i.): 1.51 ± 0.10 % ID/g | Biodistribution Liver ([2]; 60 min p.i.): 27.7±3.1 % ID/g and 27.7 ± 3.12 % ID/g | Biodistribution Lung ([2]; 60 min p.i.): 0.38 ± 0.10 % ID/g | Biodistribution Muscle ([2]; 60 min p.i.): 0.17 ± 0.02 % ID/g | Biodistribution Pancreas ([2]; 60 min p.i.): 0.19 ± 0.09 % ID/g | Biodistribution Spleen ([2]; 60 min p.i.): 0.16 ± 0.02 % ID/g | Biodistribution Stomach ([2]; 60 min p.i.): 0.92 ± 0.04 % ID/g | logD [3]: -4.33 ± 0.09 | Serum stability (% of intact ligand) ([4]; 2 min): 99.8% | Serum stability (% of intact ligand) ([4]; 30 min): 97.6% | Serum stability (% of intact ligand) ([4]; 60 min): 98.5% | Serum stability (% of intact ligand) ([4]; 120 min): 92.9% | Stability in human blood serum (% intact tracer) ([4]; over the time course of 2 h): > 93%
